# Laboratory results taken from PubChem BioAssay AID2060912 (Molecular Pharmacology Branch, DTP, NCI, 2025).
# System: HUVEC/MSC spheroids viability
# Assay: Human HUVEC/MSC cell line growth inhibition [KRAS2];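 as to viability, T/C: percent of DMSO vehicle control luminescence so 100% = untreated viability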
# Conditions: for IC50: curve of first compound; for viability, T/C: stronger effect = lower value
# Outline: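 Spheroids of pooled-donor HUVEC and hMSC (passage ≤5) without tumour cells were treated with KRAS-pathway inhibitors alone and combined with targeted agents. Top concentration was at or near clinical Cmax, or 10 microM when Cmax was unknown, descending in half-log steps.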
# [1] = second compound 0.0316 µM, first compound 0.0316 µM
# [2] = second compound 0.0316 µM, first compound 0.1 µM
# [3] = second compound 0.0316 µM, first compound 0.316 µM
# [4] = second compound 0.0316 µM, first compound 1 µM
# [5] = second compound 0.1 µM, first compound 0.0316 µM
# [6] = second compound 0.1 µM, first compound 0.1 µM
# [7] = second compound 0.1 µM, first compound 0.316 µM
# [8] = second compound 0.1 µM, first compound 1 µM
# [9] = second compound 0.316 µM, first compound 0.0316 µM
# [10] = second compound 0.316 µM, first compound 0.1 µM
# [11] = second compound 0.316 µM, first compound 0.316 µM
# [12] = second compound 0.316 µM, first compound 1 µM
# [13] = second compound 1 µM, first compound 0.0316 µM
# [14] = second compound 1 µM, first compound 0.1 µM
# [15] = second compound 1 µM, first compound 0.316 µM
# [16] = second compound 1 µM, first compound 1 µM
# [17] = second compound 3.16 µM, first compound 0.0316 µM
# [18] = second compound 3.16 µM, first compound 0.1 µM
# [19] = second compound 3.16 µM, first compound 0.316 µM
# [20] = second compound 3.16 µM, first compound 1 µM
# [21] = second compound 10 µM, first compound 0.0316 µM
# [22] = second compound 10 µM, first compound 0.1 µM
# [23] = second compound 10 µM, first compound 0.316 µM
# [24] = second compound 10 µM, first compound 1 µM
structure (smiles),measurement,setting,value
CC1COCCN1c1cc(-c2ccnn2C)c2ccnc(-c3ccn[nH]3)c2n1 (stereo unspecified) + C=CC(=O)N1CCN(c2nc(=O)n(-c3c(C)ccnc3C(C)C)c3nc(-c4c(O)cccc4F)c(F)cc23)C(C)C1,IC50,second compound 0.0316 µM,2.52 µM
same,IC50,second compound 0.1 µM,> 3 µM
same,IC50,second compound 0.316 µM,2.75 µM
same,IC50,second compound 1 µM,> 3 µM
same,IC50,second compound 3.16 µM,> 3 µM
same,IC50,second compound 10 µM,> 3 µM
same,"viability, T/C","second compound 0.0316 µM, first compound 0.00949 µM",82.3%
same,"viability, T/C","second compound 0.0316 µM, first compound 0.03 µM",97.5%
same,"viability, T/C","second compound 0.0316 µM, first compound 0.0949 µM",75%
same,"viability, T/C","second compound 0.0316 µM, first compound 0.3 µM",73.2%
same,"viability, T/C","second compound 0.0316 µM, first compound 0.949 µM",64.6%
same,"viability, T/C","second compound 0.0316 µM, first compound 3 µM",47.4%
same,"viability, T/C","second compound 0.1 µM, first compound 0.00949 µM",113%
same,"viability, T/C","second compound 0.1 µM, first compound 0.03 µM",83.7%
same,"viability, T/C","second compound 0.1 µM, first compound 0.0949 µM",96.6%
same,"viability, T/C","second compound 0.1 µM, first compound 0.3 µM",83.2%
same,"viability, T/C","second compound 0.1 µM, first compound 0.949 µM",50.7%
same,"viability, T/C","second compound 0.1 µM, first compound 3 µM",51.8%
same,"viability, T/C","second compound 0.316 µM, first compound 0.00949 µM",114%
same,"viability, T/C","second compound 0.316 µM, first compound 0.03 µM",105%
same,"viability, T/C","second compound 0.316 µM, first compound 0.0949 µM",94.2%
same,"viability, T/C","second compound 0.316 µM, first compound 0.3 µM",75.5%
same,"viability, T/C","second compound 0.316 µM, first compound 0.949 µM",63.3%
same,"viability, T/C","second compound 0.316 µM, first compound 3 µM",48.6%
same,"viability, T/C","second compound 1 µM, first compound 0.00949 µM",108%
same,"viability, T/C","second compound 1 µM, first compound 0.03 µM",119%
same,"viability, T/C","second compound 1 µM, first compound 0.0949 µM",96.2%
same,"viability, T/C","second compound 1 µM, first compound 0.3 µM",76.3%
same,"viability, T/C","second compound 1 µM, first compound 0.949 µM",76%
same,"viability, T/C","second compound 1 µM, first compound 3 µM",54.6%
same,"viability, T/C","second compound 3.16 µM, first compound 0.00949 µM",103%
same,"viability, T/C","second compound 3.16 µM, first compound 0.03 µM",117%
same,"viability, T/C","second compound 3.16 µM, first compound 0.0949 µM",101%
same,"viability, T/C","second compound 3.16 µM, first compound 0.3 µM",88.5%
same,"viability, T/C","second compound 3.16 µM, first compound 0.949 µM",73.2%
same,"viability, T/C","second compound 3.16 µM, first compound 3 µM",74.8%
same,"viability, T/C","second compound 10 µM, first compound 0.00949 µM",121%
same,"viability, T/C","second compound 10 µM, first compound 0.03 µM",123%
same,"viability, T/C","second compound 10 µM, first compound 0.0949 µM",115%
same,"viability, T/C","second compound 10 µM, first compound 0.3 µM",102%
same,"viability, T/C","second compound 10 µM, first compound 0.949 µM",72%
same,"viability, T/C","second compound 10 µM, first compound 3 µM",77.1%
CCN1CCN(Cc2ccc(Nc3ncc(F)c(-c4cc(F)c5nc(C)n(C(C)C)c5c4)n3)nc2)CC1 + C=CC(=O)N1CCN(c2nc(=O)n(-c3c(C)ccnc3C(C)C)c3nc(-c4c(O)cccc4F)c(F)cc23)C(C)C1,IC50,second compound 0.0316 µM,> 1 µM
same,IC50,second compound 0.1 µM,> 1 µM
same,IC50,second compound 0.316 µM,> 1 µM
same,IC50,second compound 1 µM,> 1 µM
same,IC50,second compound 3.16 µM,> 1 µM
same,IC50,second compound 10 µM,> 1 µM
same,"viability, T/C","second compound 0.0316 µM, first compound 0.00316 µM",76%
same,"viability, T/C","second compound 0.0316 µM, first compound 0.01 µM",95.8%
same,"viability, T/C",[1],93.7%
same,"viability, T/C",[2],86.6%
same,"viability, T/C",[3],129%
same,"viability, T/C",[4],107%
same,"viability, T/C","second compound 0.1 µM, first compound 0.00316 µM",96.8%
same,"viability, T/C","second compound 0.1 µM, first compound 0.01 µM",102%
same,"viability, T/C",[5],85.1%
same,"viability, T/C",[6],82.9%
same,"viability, T/C",[7],129%
same,"viability, T/C",[8],116%
same,"viability, T/C","second compound 0.316 µM, first compound 0.00316 µM",113%
same,"viability, T/C","second compound 0.316 µM, first compound 0.01 µM",106%
same,"viability, T/C",[9],98%
same,"viability, T/C",[10],87.2%
same,"viability, T/C",[11],112%
same,"viability, T/C",[12],123%
same,"viability, T/C","second compound 1 µM, first compound 0.00316 µM",118%
same,"viability, T/C","second compound 1 µM, first compound 0.01 µM",109%
same,"viability, T/C",[13],109%
same,"viability, T/C",[14],119%
same,"viability, T/C",[15],119%
same,"viability, T/C",[16],133%
same,"viability, T/C","second compound 3.16 µM, first compound 0.00316 µM",127%
same,"viability, T/C","second compound 3.16 µM, first compound 0.01 µM",111%
same,"viability, T/C",[17],132%
same,"viability, T/C",[18],121%
same,"viability, T/C",[19],138%
same,"viability, T/C",[20],162%
same,"viability, T/C","second compound 10 µM, first compound 0.00316 µM",149%
same,"viability, T/C","second compound 10 µM, first compound 0.01 µM",154%
same,"viability, T/C",[21],130%
same,"viability, T/C",[22],134%
same,"viability, T/C",[23],118%
same,"viability, T/C",[24],162%
CCNC(=O)CC1N=C(c2ccc(Cl)cc2)c2cc(OC)ccc2-n2c(C)nnc21 (stereo unspecified) + C=CC(=O)N1CCN(c2nc(=O)n(-c3c(C)ccnc3C(C)C)c3nc(-c4c(O)cccc4F)c(F)cc23)C(C)C1,IC50,second compound 0.0316 µM,> 10 µM
same,IC50,second compound 0.1 µM,> 10 µM
same,IC50,second compound 0.316 µM,> 10 µM
same,IC50,second compound 1 µM,> 10 µM
same,IC50,second compound 3.16 µM,> 10 µM
same,IC50,second compound 10 µM,> 10 µM
same,"viability, T/C",[1],94.8%
same,"viability, T/C",[2],96.7%
same,"viability, T/C",[3],129%
same,"viability, T/C",[4],140%
same,"viability, T/C","second compound 0.0316 µM, first compound 3.16 µM",120%
same,"viability, T/C","second compound 0.0316 µM, first compound 10 µM",121%
same,"viability, T/C",[5],104%
same,"viability, T/C",[6],86.3%
same,"viability, T/C",[7],110%
same,"viability, T/C",[8],138%
same,"viability, T/C","second compound 0.1 µM, first compound 3.16 µM",162%
same,"viability, T/C","second compound 0.1 µM, first compound 10 µM",151%
same,"viability, T/C",[9],111%
same,"viability, T/C",[10],109%
same,"viability, T/C",[11],116%
same,"viability, T/C",[12],143%
same,"viability, T/C","second compound 0.316 µM, first compound 3.16 µM",131%
same,"viability, T/C","second compound 0.316 µM, first compound 10 µM",187%
same,"viability, T/C",[13],114%
same,"viability, T/C",[14],105%
same,"viability, T/C",[15],140%
same,"viability, T/C",[16],163%
same,"viability, T/C","second compound 1 µM, first compound 3.16 µM",179%
same,"viability, T/C","second compound 1 µM, first compound 10 µM",174%
same,"viability, T/C",[17],116%
same,"viability, T/C",[18],146%
same,"viability, T/C",[19],150%
same,"viability, T/C",[20],208%
same,"viability, T/C","second compound 3.16 µM, first compound 3.16 µM",206%
same,"viability, T/C","second compound 3.16 µM, first compound 10 µM",207%
same,"viability, T/C",[21],125%
same,"viability, T/C",[22],127%
same,"viability, T/C",[23],176%
same,"viability, T/C",[24],189%
same,"viability, T/C","second compound 10 µM, first compound 3.16 µM",179%
same,"viability, T/C","second compound 10 µM, first compound 10 µM",197%
